A short description of data set [1]: Phase-solubility study with FUR (apparent stability constant KC). The data set is classed as physicochemical. To be noted: aqueous solution, room temperature, 1:1 complex. On the procedure: The suspension was homogenized at room temperature using a thermomixer (Thermomixer C, Eppendorf, Austria) at 750 rpm until equilibrium in solubility was reached (3–4 days).

In data set [2] the test system is Caco-2 cell monolayer. The data set can be described thus: TEER measurement on the Caco-2 cell monolayer. The class given is cell-based, human. To be noted: for decrease in TEER: Caco-2 monolayer, during 3 h permeation experiment; for TEER regained in comparison to initial values: after cell washing and incubating with MEM. The protocol: Permeation studies on the Caco-2 cell monolayer were executed as described previously.[23] Caco-2 cells at a density of 0.6 × 10^5 cells/cm^2 were seeded onto 24-well plates with ThinCert inserts (pore-size: 400 μm, Greiner Bio-One, Kremsmünster, Austria). Cells were cultured in MEM containing 20% FCS in an atmosphere of 5% CO2 and 95% humidity at 37 °C. The medium was renewed every other day for 21 days. For permeation studies, only cell monolayers showing a transepithelial electrical resistance (TEER) in the range of 300–500 Ω cm^2 were applied, which were determined with an EVOM instrument. TEER was also determined at time point 3 h representing the end of the permeation experiment and after 24 and 48 h to confirm monolayer integrity. Before the start of the experiment, cells were washed with PBS. Thereafter, 500 μL of MEM without FCS was transferred to the donor chamber and 1000 μL of the same medium was transferred to an accepter chamber.
(In general: Caco-2 cells form a polarised layer with tight junctions and transporters.)

Data set [3] in a line: Quantification of −SH content with Ellman's reagent. The data set is classed as physicochemical. The protocol:
Per-6-thiolated α-CD was assessed for the amount of thiol by using Ellman’s reagent.[16] The calibration curve was established using L-cysteine.
Background: DTNB colorimetry detects thiols as they appear.

The nature of data set [4]: Resazurin cytotoxicity assay on Caco-2 cells. The class given is cell-based, human. To be noted: human, read-out: cell viability. On the procedure:
(§1) The impact of per-6-thiolated α-CD on viability of human colorectal carcinoma (Caco-2) cells was evaluated by resazurin assay to confirm the safety of the newly synthesized oligomer. For this purpose, Caco-2 cells were obtained from the European Collection of Cell Cultures (Salisbury, UK). Caco-2 cells at a density of 2.5 × 10^4 cells/well were suspended in 500 μL of MEM and seeded to a 24-well plate. The plate was incubated at an atmosphere of CO2 (5%) and relative humidity (95%) at 37 °C for 2 weeks. During this culture period, the medium was replaced on alternative days.
(§2) Toxicity assay was performed to investigate the cytotoxic potential of per-6-thiolated α-CD by quantifying resorufin formed by the reduction of resazurin. On the day of the experiment, cells of around 80% confluency were washed two times with preheated 10 mM PBS pH 7.4. The oligomer solutions (500 μL) of per-6-thiolated and unmodified α-CD (0.5% m/v) in white MEM, 4% (v/v) Triton X-100 acting as a negative control and white MEM acting as a positive control were transferred to the cell culture wells.
(§3) After 3 and 24 h, test samples were withdrawn, and the cells were washed two times with preheated PBS. In the following, 500 μL of resazurin (2.2 μM) solution was added, and cells were further incubated for 3 h. Aliquots (100 μL) were inserted to a 96-well plate, and the fluorescence was analyzed at emission and excitation wavelength of 590 and 540 nm utilizing a microplate reader (M-200 spectrometer; Tecan infinite, Austria). Cell viability of cells was measured using eq 1 [drawing 1] 1

Data set [5] has as its system human colorectal carcinoma (Caco-2) cells. The data set can be described thus: Resazurin cytotoxicity assay on Caco-2 cells. The data set is classed as cell-based. To be noted: 0.5% (m/v), within 24 h. On the procedure:
as §1, §2, §3
A general note: The colour change of resazurin is a common sign of viable cells or microbes.

A short description of data set [6]: pKa of −SH groups by photometric method. The data set is classed as physicochemical. Particulars: 0.001 M HCl containing 0.1 M NaCl, titrated with 0.01% NaOH; absorbance at 242 nm, 0.1% m/v. On the procedure:
As the stability of sulfhydryl groups depends on thiolate anions concentration, the pKa value of −SH groups on per-6-thiolated α-CD was determined via an established photometric method with some modifications.[17] Briefly, ionic strength was stabilized by dissolving per-6-thiolated α-CD (0.1% m/v) in 0.001 M HCl containing 0.1 M NaCl. Increasing volumes of 0.01% NaOH were added to per-6-thiolated CD solutions that were continuously measured regarding pH and absorbance at 242 nm. The pKa was determined by plotting pH versus −log[(Amax – Ai)/Ai].

Data set [7] can be described thus: Stability of −SH groups toward oxidation at different pH. The data set is classed as physicochemical. The protocol:
Furthermore, the stability of the thiolated CD was measured under different pH. In short, per-6-thiolated α-CD (0.25% m/v) was hydrated in water, and pH was adjusted to 4 and 5 with acetate buffer (50 mM), to 6 with phosphate buffer (50 mM), and to 7.2 with Tris buffer (50 mM). Test samples were kept under continuous stirring at 37 °C. After specific time intervals, aliquots of 500 μL were taken. Any further reaction was quenched by adding 50 μL of 1 M HCl to each aliquot.[18] Sulfhydryl groups were quantified using Ellman’s reagent.

Structures are written as SMILES.

For the compound `OC[C@H]1O[C@@H]2O[C@H]3[C@H](O)[C@@H](O)[C@@H](O[C@H]4[C@H](O)[C@@H](O)[C@@H](O[C@H]5[C@H](O)[C@@H](O)[C@@H](O[C@H]6[C@H](O)[C@@H](O)[C@@H](O[C@H]7[C@H](O)[C@@H](O)[C@@H](O[C@H]1[C@H](O)[C@H]2O)O[C@@H]7CO)O[C@@H]6CO)O[C@@H]5CO)O[C@@H]4CO)O[C@@H]3CO` [α-CD, α-cyclodextrin, reference compound], the “apparent stability constant (KC) with FUR” value in data set [1] was found to be 1050.7 M^–1. The “decrease in TEER” value in data set [2] is reported as around 15%.

For `O[C@@H]1[C@@H](O)[C@H]2O[C@H]3[C@H](O)[C@@H](O)[C@@H](O[C@H]4[C@H](O)[C@@H](O)[C@@H](O[C@H]5[C@H](O)[C@@H](O)[C@@H](O[C@H]6[C@H](O)[C@@H](O)[C@@H](O[C@H]7[C@H](O)[C@@H](O)[C@@H](O[C@@H]1[C@@H](CS)O2)O[C@@H]7CS)O[C@@H]6CS)O[C@@H]5CS)O[C@@H]4CS)O[C@@H]3CS` [per-6-thiolated α-CD, per-6-thiolated α-cyclodextrin], in data set [3], the “amount of −S–S– groups on the CD backbone” value amounted to 786 ± 139 µmol/g. Moreover, the “amount of −SH groups on the CD backbone” value in data set [3] (Ellman's reagent) worked out at 4244 ± 402 µmol/g. Moreover, the viability (as a rule, the share of living cells, or the viability signal relative to a control) at 3 h, 0.5 % (m/v) in data set [4] (after 3 h) is above 88%. Besides, the viability at 24 h, 0.5 % (m/v) in data set [4] (after 24 h) is above 88%. Further, the cytotoxicity entry in data set [5] was “not cytotoxic”. Besides, the pKa (commonly the pH at which an ionisable group is half protonated) in data set [6] worked out at 8.1. In addition, the “−SH groups oxidized” value in data set [7] (after 3 h at pH 5, 37 °C) is recorded as 15%. Also, the “stability of −SH groups” value is reported as “stable” in data set [7] (pH 4, 37 °C, 0.25% m/v) and “stable” in data set [7] (pH ≤ 4). Moreover, the “apparent stability constant (KC) with FUR” value in data set [1] came out at 1090.9 M^–1. In data set [2], the “decrease in TEER” value is on record as “up to 28%”. Besides, the “TEER regained in comparison to initial values” in data set [2] (after 24 h) stood at 82%; in data set [2] (after 48 h), 90%.

For the origin of these results see PMC7205388, “Per-6-Thiolated Cyclodextrins: A Novel Type of Permeation Enhancing Excipients for BCS Class IV Drugs” (ACS Applied Materials & Interfaces, 2020).
